The experiment relates to Myc-CAP-PTEN^−/− cells. Kind of experiment: Myc-CAP-PTEN−/− cells in vitro (western blotting, cytokine array). The experiment is classed as cell-based, mouse. The settings on record: 24 hours. The method, then:
FIGS. 35A-35D. […] (35A) Myc-CAP-PTEN^−/− cells were treated with copanlisib […] (IC90 concentration) in vitro for 24 hours, and protein extracts were harvested for western blotting analysis with the indicated antibodies to analyze PI3K activation. (35B) Supernatants from (35A) were harvested for cytokine array profiling. n=3 independent in vitro experiments. (35C) Mice bearing Myc-CAP-PTEN^−/− established syngeneic tumors (200 mm^3) were treated with copanlisib (14 mg/kg, every other day, until tumors reached 2000 mm^3). Tumor volumes were monitored daily and graphed. (35D) At the end of treatment, tumors were analyzed by flow cytometry for tumor infiltrating immune cell subsets. n=5 mice per group.
FIGS. 49A and 49B. PTEN-deficient cancer cells have diminished STING expression that can be restored by […] and pan-PI3K inhibitors. (49A) Isogenic MC38, Myc-CAP, ID8, and TRAMP cells (−/+ PTEN) were analyzed for STING mRNA and protein expression by qRT-PCR and western blotting, respectively. (49B) Myc-CAP-PTEN^−/− cells were treated with GSK′771 (PI3Kβ-selective inhibitor, 1 μM) or BKM120 (pan-PI3K inhibitor, 1 μM) for 24 hours, and proteins were analyzed for STING expression and PI3K activation by western blotting.
Cancer Cell Lines and in vitro drug treatments. Transgenic c-myc^hi prostate tumor derived cell line, Myc-CAP and TRAMPC1, ovarian cancer cell line ID8 and murine colon adenocarcinoma line MC38 were obtained from the American Type Culture Collection (ATCC) and passaged in either 1×RPMI/1×DMEM (with phenol) or 1×DMEM (without phenol red) containing 10% fetal bovine serum, 1% penicillin-streptomycin, 2% L-glutamine and 1×ITS. ID8^pten−/−p53−/−cells were a kind gift from Dr. Ian McNeish (Imperial College, London). For generation of STING over expressing cell lines −Myc-CAP^pten+/+ and ID8^pten−/− cells were transfected with commercial available plasmid (DC-Mm22462-SH02, Genecoepia™), sorted and expanded as per protocol. […]
A general note: Immunoblotting shows a protein as a band on a membrane.

Turning to `Nc1cc(C(F)(F)F)c(-c2cc(N3CCOCC3)nc(N3CCOCC3)n2)cn1` [buparlisib], where the note is “1 μM”, the “STING expression (western blotting)” value is listed as “restored”.

For `COc1c(OCCCN2CCOCC2)ccc2c1N=C(NC(=O)c1cnc(N)nc1)N1CCN=C21` [copanlisib], where the note is “copanlisib 100 nm, cytokine array”, the CXCL1 production entry is reported as “decreasing CXCL1 production”.

The record behind these values is patent US20210017607A1, “Methods of Predicting Responsiveness to Cancer Therapies” (The University of Chicago, priority 2019, published 2021).
